Six molecules from US4826819A, “Piperidine analgesics” (priority 1986, dated 1989) can be followed below.

The nature of assay [1]: Mouse Tail-flick test (analgesic activity). To be noted: for % Protection (percent number of mice doubling the initial reaction time): 1 mg Kg^-1, 30 min after dosing. In kind it is in vivo, mouse (male Charles River mice). In general terms: In hot-plate and tail-flick tests a longer latency is read as antinociception.
Assay [2] addresses T1, μ opioid receptor (μ sites) (Cavia porcellus, UniProt A0ACM8Q262).
T1 construct: 3H-DAGO displacement
Put plainly: Opiate receptor binding to μ sites (3H-DAGO). On the procedure:
(§1) Radio receptor binding to μ and k sites is performed on fresh guinea pig brain homogenate prepared according to Kosterlitz. (1981).
(§2) Whole brain without cerebellum is homogenized in 50 mM, Tris-buffer (pH 7.4 at 0° C.) and centrifuged at 49,000×g×10 min. The pellet is then resuspended in the same buffer, incubated at 37° C. for 45 min. and centrifuged again.
(§3) 1.9 ml of the final homogenate (1:100 in Tris-pH 7.4, 0° C.) is used for the binding assay.
Binding to μ sites (Magnan J., 1982)
^3 H [D-Ala^2, MePhe^4, Gly-ol^5 ] Enkephalin (^3 H-DAGO), an enkephalin analogue that binds selectively to μ-receptors, is added to the biological substrate and incubated at 25° C. for 40 min., filtered through Whatman GF-C and washed with ice-cold Tris-buffer.
The filters are then dried, solubilized in Filtercount and the radioactivity monitored. Non specific binding is determined in the presence of 10^-6 M Naloxone.
(§4) For the calculation of the kinetic parameters of the binding of labelled and unlabelled ligands, the equilibrium dissociation constant (KD), and the inhibition constant (Ki) and the maximum number of binding sites (B max) are determined from saturation curves and competition experiments (Hill 1910; Scatchard 1949; Cheng and Prusoff 1973; Gillan et al. 1980).
(§5) A concentration of radioligand near KD is used in the binding assays evaluating our compounds.

In assay [3] the target is T2, K (Kappa) opioid receptor (K sites) (Cavia porcellus, UniProt P41144).
T2 construct: performed on fresh guinea pig brain homogenate; from tissue; host or cells: guinea pig whole brain without cerebellum, homogenate
Put plainly: Opiate receptor binding to K sites (tritiated Ethylketocyclazocine). Further details: species or system guinea pig. Here is the method: as §1, §2, §3
Binding to K sites (Magnan J., 1982)
The binding of tritiated Ethylketocyclazocine to brain homogenate is measured in the presence of 100 nanomolar D-Ala-D-LeuEnkephalin (DADLE) and 100 nanomolar DAGO, added to saturate the δ and μ opioid receptors respectively.
Final homogenate with solutions of the cold ligand and of the labelled ligand is incubated for 40 min at 25° C., filtered through Whatman GF/C glass filter discs and washed.
The radioactivity bound to the filters is counted by liquid scintillation spectrophotometry.
MR 2266,500 nM is utilized to determine the saturable binding.
as §4, §5

Setting [4] is: sc, 0.5 h, subcutaneous, read-out: ED50 subcutaneous.
The mark [5] stands for this setting: guinea pig brain homogenate, 25° C., 40 min, read-out: Ki, opiate receptor binding, μ.
[6] abbreviates: guinea pig brain homogenate, tritiated Ethylketocyclazocine with 100 nM DADLE and 100 nM DAGO, 25° C., 40 min, read-out: Ki, opiate receptor binding, K.

Where a name gives a salt, the structure may show the parent alone. Read-outs that look alike come from different tables or passages of the source.

T2 sequence (P41144 whole entry): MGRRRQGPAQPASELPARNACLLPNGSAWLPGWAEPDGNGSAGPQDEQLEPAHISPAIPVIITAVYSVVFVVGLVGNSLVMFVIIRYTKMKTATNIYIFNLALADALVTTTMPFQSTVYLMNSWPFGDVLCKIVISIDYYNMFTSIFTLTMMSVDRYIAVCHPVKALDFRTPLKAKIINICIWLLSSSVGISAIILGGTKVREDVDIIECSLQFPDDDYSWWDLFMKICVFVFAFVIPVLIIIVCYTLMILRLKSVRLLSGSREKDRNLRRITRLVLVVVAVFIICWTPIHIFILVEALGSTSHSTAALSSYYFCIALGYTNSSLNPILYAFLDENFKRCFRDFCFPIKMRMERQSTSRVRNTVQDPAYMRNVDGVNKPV
T1 sequence (A0ACM8Q262 1-400): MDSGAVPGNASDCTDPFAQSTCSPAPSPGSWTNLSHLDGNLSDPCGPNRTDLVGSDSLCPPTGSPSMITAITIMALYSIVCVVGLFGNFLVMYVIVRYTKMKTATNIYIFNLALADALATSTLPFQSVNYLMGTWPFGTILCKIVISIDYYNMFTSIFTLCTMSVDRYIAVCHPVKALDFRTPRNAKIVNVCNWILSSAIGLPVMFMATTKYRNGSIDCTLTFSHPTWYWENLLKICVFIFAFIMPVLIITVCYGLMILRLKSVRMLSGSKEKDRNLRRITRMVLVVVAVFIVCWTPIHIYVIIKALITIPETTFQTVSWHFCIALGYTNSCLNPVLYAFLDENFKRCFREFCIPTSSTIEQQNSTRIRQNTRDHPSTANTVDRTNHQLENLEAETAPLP

As for `O=C(Cc1cccc([N+](=O)[O-])c1)N1CCCCC1CN1CCCC1` (racemic) [Example 1, (2R,S)-1-(3-nitrophenylacetyl)-2-(1-Pyrrolidinylmethyl) piperidine hydrochloride], the ED50 (as a rule, the dose at which the effect has come halfway, by size or by number of responders) in assay [1] (setting [4]) stood at 0.97 mg/kg. Besides, the Ki (usually the dissociation constant of the complex between target and ligand, obtained from inhibition or displacement) in assay [2] (setting [5]) is more than 10000 nM; in assay [3] (setting [6]), 5.96 nM.
For the molecule `O=C(Cc1cccc(C(F)(F)F)c1)N1CCCCC1CN1CCCC1` (racemic) [Example 2, (2R,S)-1-(3-trifluoromethylphenylacetyl)-2-(1-pyrrolidinylmethyl)piperidinehydrochloride hemihydrate], the ED50 in assay [1] (oral (os), read-out: ED50 oral) worked out at 4.61 mg/kg; in assay [1] (setting [4]), 0.43 mg/kg. The Ki in assay [2] (setting [5]) is more than 10000 nM; in assay [3] (setting [6]), 3.07 nM.
Regarding `O=C(Cc1ccc([N+](=O)[O-])cc1)N1CCCCC1CN1CCCC1` (racemic) [Example 4, (2R,S)-1-(4-nitrophenylacetyl)-2-(1-pyrrolidinylmethyl)piperidine hydrochloride], the ED50 in assay [1] (oral (os), read-out: ED50 oral) was determined as 5.45 mg/kg; in assay [1] (setting [4]) it was 0.55 mg/kg. For the same molecule, in assay [1] (subcutaneous), the “% Protection (percent number of mice doubling the initial reaction time)” value is 80%. The inhibitory constant (Ki) in assay [2] (setting [5]) is 12800 nM; in assay [3] (setting [6]), 37.9 nM.
On to `O=C(Cc1ccc(C(F)(F)F)cc1)N1CCCCC1CN1CCCC1` (racemic) [Example 5, (2R,S)-1-(4-trifluoronethylphenylacetyl)-2-(1pyrrolidinylmethyl)piperidine hydrochloride], for which the ED50 in assay [1] (oral (os), read-out: ED50 oral) came to 1.08 mg/kg; in assay [1] (setting [4]), 0.23 mg/kg. For the same molecule, in assay [1] (subcutaneous), the “% Protection (percent number of mice doubling the initial reaction time)” value is 100%. Also, the Ki in assay [2] (setting [5]) turned out to be 3090 nM; in assay [3] (setting [6]), 3.59 nM.
For the molecule `O=C(Cc1ccc(Br)cc1)N1CCCCC1CN1CCCC1` (racemic) [Example 6, (2R,S)-1-(4-bromophenylacetyl)-2-(1-pyrrolidinylmethyl)piperidine hydrochloride], the ED50 worked out at 4.12 mg/kg in assay [1] (oral (os), read-out: ED50 oral) and 0.52 mg/kg in assay [1] (setting [4]). In addition, the “% Protection (percent number of mice doubling the initial reaction time)” value in assay [1] (subcutaneous) is given as 80%. The Ki in assay [2] (setting [5]) is 3130 nM; in assay [3] (setting [6]), 6.61 nM.
With `O=C(Cc1ccc(C(F)(F)F)cc1)N1CCCC[C@H]1CN1CCCC1` [Example 3, (2S)-1-(4-trifluoromethylphenylacetyl)-2-(1-pyrrolidinylmethyl) piperidine hydrochloride sesquihydrate], the ED50 came to 0.67 mg/kg in assay [1] (oral (os), read-out: ED50 oral) and 0.14 mg/kg in assay [1] (setting [4]). The Ki in assay [2] (read-out: Ki, opiate receptor binding, μ, guinea pig brain homogenate, 25° C., 40 min) was 2540 nM; in assay [3] it was 4.05 nM.
